{
  "source": "the NIST ThermoML archive (doi:10.1016/j.fluid.2011.03.003)",
  "details": "Liquid, Closed cell (Static) method",
  "note": "Numbers after ± are expanded uncertainties.",
  "data": [
    {"smiles": "CCC(=O)OC(C)C", "note": "[1-methylethyl propanoate]", "values": [
      {"measurement": "vapor or sublimation pressure", "setting": "337.66 K", "value": "24.6 ± 0.09", "unit": "kPa"},
      {"measurement": "vapor or sublimation pressure", "setting": "342.61 K", "value": "29.5 ± 0.11", "unit": "kPa"},
      {"measurement": "vapor or sublimation pressure", "setting": "347.62 K", "value": "35.68 ± 0.13", "unit": "kPa"},
      {"measurement": "vapor or sublimation pressure", "setting": "352.67 K", "value": "42.43 ± 0.15", "unit": "kPa"},
      {"measurement": "vapor or sublimation pressure", "setting": "357.58 K", "value": "50.12 ± 0.18", "unit": "kPa"},
      {"measurement": "vapor or sublimation pressure", "setting": "362.57 K", "value": "59 ± 0.2", "unit": "kPa"},
      {"measurement": "vapor or sublimation pressure", "setting": "382.65 K", "value": "101.3 ± 0.3", "unit": "kPa"}
    ]},
    {"smiles": "CC(C)O", "note": "[propan-2-ol]", "values": [
      {"measurement": "vapor or sublimation pressure", "setting": "355.15 K", "value": "101.3 ± 1.2", "unit": "kPa"}
    ]},
    {"smiles": "CCC(=O)O", "note": "[propanoic acid]", "values": [
      {"measurement": "vapor or sublimation pressure", "setting": "413.58 K", "value": "101.3 ± 1.2", "unit": "kPa"}
    ]}
  ]
}
